Read-outs that look alike come from different tables or passages of the source.
Assay: phase 1 study in patients with mild to moderate Parkinson's disease (PK, safety)
Assay type: in vivo, human
Settings: for AR AUC (accumulation ratio, geometric mean): AUC(0-tau); for Frel AUC(0-24) / Frel Cmax: Day 9 fed vs Day 7 QD fasted; for concentration at 3 h: po; for Cmax / Tmax / AUC / concentration at 24 h / Tmax at 7 days / half-life at 7 days / half-life / AUC(0-t) / concentration at 12 h / AUC(0-inf): oral; for Cmax: read-out: Cmax (geometric mean); for AUC: read-out: AUC(0-tau) (geometric mean); for AUC(0-inf): read-out: AUC(0-inf) (geometric mean)
Description: Study Title: A Single Part Study to Assess the Safety, Tolerability, Pharmacokinetics and Pharmacodynamics of Multiple Ascending Oral Doses of anle138b, and to Characterize the Effect of Food on the Pharmacokinetics of anle138b in Patients with Mild to Moderate Parkinson's Disease.
This was a two-center, double-blind, randomised, placebo-controlled study that enrolled twenty two (22) participants in cohorts (i.e. regimens) A-C. All completed the study per protocol. After completion of Cohorts A to C it was decided to add Cohorts D and E of 24 subjects. Cohort D expanded sample size of previous dosing regiments 150 mg and 300 mg QD and Cohort E administration of anle138b 300 mg for 28 days, under non fasted conditions.
Drug product used is described in section 1.3, supra, placebo was vehicle in capsule. Subjects were between 50 and 80 years of age with a diagnosis of idiopathic PD as defined by the Movement Disorders Society criteria (either fulfilling criteria for “Clinically Established PD” or for “Clinically Probable PD”). They had to present with Hoehn and Yahr stage I-III (i.e. able to walk unaided), and stable medication for PD for 1 month prior to inclusion and anticipated over the study period. The subjects were randomly assigned to receive one of three drug regimens, A, B or C, as follows: • Regimen A—150 mg (5×30 mg) anle138b oral capsules or matching placebo QD, for 7 consecutive days in the fasted state, followed by a single administration of 150 mg anle138b oral capsule or matching placebo on Day 9 in the fed state, • Regimen B—300 mg (10×30 mg) anle138b oral capsules or matching placebo QD, for 7 consecutive days in the fasted state, followed by a single administration of 300 mg anle138b oral capsule (10×30 mg capsules) or matching placebo on Day 9 in the fed state, • Regimen C—150 mg (5×30 mg) anle138b oral capsules or matching placebo BID (total 300 mg daily), […]
Primary endpoints provided safety and tolerability information for the test product by assessing: AEs, vital signs, ECGs, physical examinations and laboratory safety tests, and to provide additional safety and tolerability information for the test product taken also in the fed state by assessing: AEs, vital signs, ECGs, physical examinations and laboratory safety tests.
Secondary endpoints provided PK information for the test product in PD patients by assessing plasma exposure under fast and fed conditions.

[1] = PD patients, Regimen A 150 mg, Day 1, fasted
[2] = PD patients, Regimen B 300 mg, Day 1, fasted

With Brc1cccc(-c2cc(-c3ccc4c(c3)OCO4)n[nH]2)c1 [anle138b, 3-(1,3-benzodioxol-5-yl)-5-(3-bromophenyl)-1H-pyrazole] the “AR Cmax (accumulation ratio, geometric mean)” value (PD patients, Regimen A 150 mg QD, Day 7) was 0.346, the “AR AUC (accumulation ratio, geometric mean)” value (PD patients, Regimen A 150 mg QD, Day 7, tau 24 h) was 0.371 and the “T1/2, individual subject values” (PD patients, Regimen A 150 mg QD, Day 7, n = 2) was 16.25 h. For the same compound, the “maximum individual AUC(0-24) as % of the exposure limit in the protocol” value [1] was about 6.19%, the “maximum individual Cmax as % of the exposure limit in the protocol” value [1] was “approximately 24.9%” and the “Frel AUC(0-24)” value (PD patients, Regimen A 150 mg) was 132%. For the same compound, the “Frel Cmax” value (PD patients, Regimen A 150 mg) was 104%, the “Tmax (median)” value (PD patients, Regimen B 300 mg QD (row prints fed, title fasted state), Day 7) was 1.6 h and the “AR Cmax (accumulation ratio, geometric mean)” value (PD patients, Regimen B 300 mg QD, Day 7) was 0.428. The “AR AUC (accumulation ratio, geometric mean)” value (PD patients, Regimen B 300 mg QD, Day 7, tau 24 h) was 0.351, the “maximum individual AUC(0-24) as % of the exposure limit in the protocol” value [2] was about 8.4% and the “maximum individual Cmax as % of the exposure limit in the protocol” value [2] was about 75.8%. For the same compound, the “Frel AUC(0-24)” value (PD patients, Regimen B 300 mg) was 109%, the “Frel Cmax” value (PD patients, Regimen B 300 mg) was 71.4% and the “maximum individual Cmax as % of the exposure limit in the protocol” value (PD patients, Regimen C 150 mg BID, Day 1, fasted) was about 26.4%. The “maximum individual AUC as % of the exposure limit in the protocol” value (PD patients, Regimen C 150 mg BID, Day 1, fasted, AUC(0-12) vs limit based on AUC(0-24)) was about 4.94%, the “AR Cmax (accumulation ratio, geometric mean)” value (PD patients, Regimen C 150 mg BID, Day 7) was 0.333 and the “AR AUC (accumulation ratio, geometric mean)” value (PD patients, Regimen C 150 mg BID, Day 7, tau 12 h) was 0.299. For the same compound, the “safety and tolerability (in words)” value (PD patients, doses up to 300 mg) was “safe and well tolerated”, the concentration at 3 h (human, CSF, 300 mg, PD patients, multiple QD oral doses of 300 mg, fasted, 3 h post-dose on Day 5, read-out: CSF anle138b concentration (geometric mean)) was 0.319 ng/mL and the Kp at 3 h (human, CSF/plasma, PD patients, multiple QD oral doses of 300 mg, fasted, 3 h post-dose on Day 5, read-out: CSF/plasma anle138b concentration ratio (geometric mean)) was 0.0024. The Cmax (human, plasma, 150 mg, PD patients, Regimen A 150 mg QD (row prints fed, title fasted state), Day 1) was about 462 ng/mL, the Tmax (human, plasma, 150 mg, PD patients, Regimen A 150 mg QD (row prints fed, title fasted state), Day 1, read-out: Tmax (median)) was 1.25 h and the Tmax (human, plasma, 150 mg, PD patients, Regimen A 150 mg QD (row prints fed, title fasted state), Day 1, read-out: Tmax (range)) was 1 to 1.5 h. It also gave an AUC (human, plasma, 150 mg, PD patients, Regimen A 150 mg QD (row prints fed, title fasted state), Day 1, tau 24 h) of about 1040 ng·h/mL, a concentration at 24 h (human, plasma, 150 mg, PD patients, Regimen A 150 mg QD (row prints fed, title fasted state), Day 1, tau 24 h, read-out: Ctau (geometric mean)) of 3.76 ng/mL and a Cmax (human, plasma, 150 mg, PD patients, Regimen A 150 mg QD (row prints fed, title fasted state), Day 7) of about 160 ng/mL. The Tmax at 7 days (human, plasma, 150 mg, PD patients, Regimen A 150 mg QD (row prints fed, title fasted state), Day 7, read-out: Tmax (median)) was 1 h, the Tmax at 7 days (human, plasma, 150 mg, PD patients, Regimen A 150 mg QD (row prints fed, title fasted state), Day 7, read-out: Tmax (range)) was 1 to 2 h and the AUC (human, plasma, 150 mg, PD patients, Regimen A 150 mg QD (row prints fed, title fasted state), Day 7, tau 24 h) was about 388 ng·h/mL. For the same compound, the concentration at 24 h (human, plasma, 150 mg, PD patients, Regimen A 150 mg QD (row prints fed, title fasted state), Day 7, tau 24 h, read-out: Ctau (geometric mean)) was 1.86 ng/mL, the half-life at 7 days (human, plasma, 150 mg, PD patients, Regimen A 150 mg QD, Day 7, n = 2, read-out: T1/2, individual subject values (converted)) was 17.1 h and the half-life (human, plasma, 150 mg, PD patients, Regimen A 150 mg single dose on Day 9, fed state, n = 3, read-out: T1/2 (geometric mean) (converted)) was 15.9 h. The AUC(0-t) (human, plasma, 150 mg, PD patients, Regimen A 150 mg single dose on Day 9, fed state, read-out: AUC(0-24) (geometric mean)) was 513 ng·h/mL, the AUC(0-t) (human, plasma, 150 mg, PD patients, Regimen A 150 mg single dose on Day 9, fed state, read-out: AUC(0-last) (geometric mean)) was 542 ng·h/mL and the concentration at 24 h (human, plasma, 150 mg, PD patients, Regimen A 150 mg single dose on Day 9, fed state, read-out: C24 (geometric mean)) was 1.87 ng/mL. For the same compound, the Cmax (human, plasma, 150 mg, PD patients, Regimen A 150 mg single dose on Day 9, fed state) was 167 ng/mL, the Tmax (human, plasma, 150 mg, PD patients, Regimen A 150 mg single dose on Day 9, fed state, read-out: Tmax (median)) was 3 h and the Tmax (human, plasma, 150 mg, PD patients, Regimen A 150 mg single dose on Day 9, fed state, read-out: Tmax (range)) was 1.5 to 4 h. For the same compound, the Cmax (human, plasma, 150 mg, PD patients, Regimen C 150 mg BID, fast, Day 1) was about 546 ng/mL, the Tmax (human, plasma, 150 mg, PD patients, Regimen C 150 mg BID, fast, Day 1, read-out: Tmax (median)) was 1 h and the Tmax (human, plasma, 150 mg, PD patients, Regimen C 150 mg BID, fast, Day 1, read-out: Tmax (range)) was 1 to 2 h. The AUC (human, plasma, 150 mg, PD patients, Regimen C 150 mg BID, fast, Day 1, tau 12 h) was about 993 ng·h/mL, the concentration at 12 h (human, plasma, 150 mg, PD patients, Regimen C 150 mg BID, fast, Day 1, tau 12 h, read-out: Ctau (geometric mean)) was 7.41 ng/mL and the Cmax (human, plasma, 150 mg, PD patients, Regimen C 150 mg BID, fast, Day 7) was about 182 ng/mL. The half-life at 7 days (human, plasma, 150 mg, PD patients, Regimen C 150 mg BID, fast, Day 7, read-out: T1/2 (geometric mean) (converted)) was 14.1 h, the Tmax at 7 days (human, plasma, 150 mg, PD patients, Regimen C 150 mg BID, fast, Day 7, read-out: Tmax (median)) was 1 h and the Tmax at 7 days (human, plasma, 150 mg, PD patients, Regimen C 150 mg BID, fast, Day 7, read-out: Tmax (range)) was 1 to 1.5 h. The AUC (human, plasma, 150 mg, PD patients, Regimen C 150 mg BID, fast, Day 7, tau 12 h) was about 297 ng·h/mL, the concentration at 12 h (human, plasma, 150 mg, PD patients, Regimen C 150 mg BID, fast, Day 7, tau 12 h, read-out: Ctau (geometric mean)) was 4.05 ng/mL and the half-life (human, plasma, 150 mg, patient, 150 mg once daily for 7 consecutive days, fed conditions as printed, day 7, read-out: T½ of anle138b (clause 14) (converted)) was about 11.7 h. For the same compound, the Cmax (human, plasma, 300 mg, PD patients, Regimen B 300 mg QD (row prints fed, title fasted state), Day 1) was about 933 ng/mL, the Tmax (human, plasma, 300 mg, PD patients, Regimen B 300 mg QD (row prints fed, title fasted state), Day 1, read-out: Tmax (median)) was 1.5 h and the Tmax (human, plasma, 300 mg, PD patients, Regimen B 300 mg QD (row prints fed, title fasted state), Day 1, read-out: Tmax (range)) was 1 to 4 h. It also gave an AUC (human, plasma, 300 mg, PD patients, Regimen B 300 mg QD (row prints fed, title fasted state), Day 1, tau 24 h) of about 2500 ng·h/mL, a concentration at 24 h (human, plasma, 300 mg, PD patients, Regimen B 300 mg QD (row prints fed, title fasted state), Day 1, tau 24 h, read-out: Ctau (geometric mean)) of 6.81 ng/mL and a Cmax (human, plasma, 300 mg, PD patients, Regimen B 300 mg QD (row prints fed, title fasted state), Day 7) of about 365 ng/mL. The Tmax at 7 days (human, plasma, 300 mg, PD patients, Regimen B 300 mg QD (row prints fed, title fasted state), Day 7, read-out: Tmax (median)) was 1.5 h, the Tmax at 7 days (human, plasma, 300 mg, PD patients, Regimen B 300 mg QD (row prints fed, title fasted state), Day 7, read-out: Tmax (range)) was 1 to 2 h and the AUC (human, plasma, 300 mg, PD patients, Regimen B 300 mg QD (row prints fed, title fasted state), Day 7, tau 24 h) was about 722 ng·h/mL. For the same compound, the concentration at 24 h (human, plasma, 300 mg, PD patients, Regimen B 300 mg QD (row prints fed, title fasted state), Day 7, tau 24 h, read-out: Ctau (geometric mean)) was 3.19 ng/mL, the half-life at 7 days (human, plasma, 300 mg, PD patients, Regimen B 300 mg QD, Day 7, read-out: T1/2 (geometric mean) (converted)) was 11.8 h and the half-life (human, plasma, 300 mg, PD patients, Regimen B 300 mg single dose on Day 9, fed state, n = 4, read-out: T1/2 (geometric mean) (converted)) was 13 h. The AUC(0-t) (human, plasma, 300 mg, PD patients, Regimen B 300 mg single dose on Day 9, fed state, read-out: AUC(0-24) (geometric mean)) was 795 ng·h/mL, the AUC(0-t) (human, plasma, 300 mg, PD patients, Regimen B 300 mg single dose on Day 9, fed state, read-out: AUC(0-last) (geometric mean)) was 831 ng·h/mL and the concentration at 24 h (human, plasma, 300 mg, PD patients, Regimen B 300 mg single dose on Day 9, fed state, read-out: C24 (geometric mean)) was 2.88 ng/mL. It also gave a Cmax (human, plasma, 300 mg, PD patients, Regimen B 300 mg single dose on Day 9, fed state) of 231 ng/mL, a Tmax (human, plasma, 300 mg, PD patients, Regimen B 300 mg single dose on Day 9, fed state, read-out: Tmax (median)) of 3 h and a Tmax (human, plasma, 300 mg, PD patients, Regimen B 300 mg single dose on Day 9, fed state, read-out: Tmax (range)) of 3 to 4 h. For the same compound, the AUC(0-inf) (human, plasma, PD patients, Regimen A 150 mg single dose on Day 9, fed state, n = 3) was 599 ng·h/mL, the AUC(0-inf) (human, plasma, PD patients, Regimen B 300 mg single dose on Day 9, fed state, n = 4) was 826 ng·h/mL and the concentration at 3 h (human, plasma, 300 mg, PD patients, multiple QD oral doses of 300 mg, fasted, 3 h post-dose on Day 5, read-out: plasma anle138b concentration (geometric mean)) was 133 ng/mL.

From patent US20250161273A1, “PHARMACEUTICAL COMPOSITION COMPRISING DIPHENYLDIAZOLE DERIVATIVES AND METHODS OF USE” (MODAG GMBH, priority 2022, published 2025)
